# Results: patent publication US7179821B2, “Method of treating of demyelinating diseases or conditions” (Aventis Pharmaceuticals Inc., priority 2001, dated 2007)
# Marks after values point to notes of the source that are not given here.
# Legend:
# [1] = test system: demyelinated area at the moderate compression injury site; experiment: Histological study of spinal cords, demyelinated area (luxol fast blue); type: in vivo, rat
# Procedure: A study to test whether the treatment with HP184 affected the amount of myelin in rats with moderate long term spinal cord crush injury when administered long after spinal cord injury.
# The spinal cords from rats described above in the assessment were used for this study.
# (50–60 mg/kg body weight, i.p.) and perfused transcardically—first with 100 mL 0.05M phosphate buffed saline (PBS) containing 0.1% heparin, followed by 300–500 mL of 4% paraformaldehyde (PFA). Segments T9 to L1 of the spinal cords were taken out, then cryo-protected in 30% sucrose solution and frozen at −70° C. in 10.24% polyvinyl alcohol and 4.26% polyethylene glycol.
# A segment of each cord including the lesion site plus 10 mm rostral and caudal to the lesion site was embedded in Tissue Tek medium. Serial sections were cut longitudinally at 20 μm intervals on a cryostat. Every third section was stained with luxol fast blue for myelin. The evaluation was performed by observers blinded as to treatment, on coded slides. Sections were examined under a light microscope for the extent of demyelination (the area without luxol fast blue staining).
# For determinations of the maximal demyelinated area of the cord, the whole section was digitized on photographs using a Zeiss microscope. The extent of demyelination was measured at the lesion center using a computerized Bioquant BQ-TCW98 image analysis progrem by an investigator who was blind to treatment group.
# Statistical analysis was performed on a Macintosh computer using GB-Stat ppc 6.5.2. The histological results were analyzed by the Kruskal-Wallis nonparametric analysis of variance (ANOVA). Post hoc comparisons were made using Mann-Whitney U tests.
# [2] = test system: photothrombotic cerebral lesion; experiment: Edema after photothrombotic cerebral lesion in the rat; type: in vivo
# Procedure: Method: Male Sprague Dawley rats (180–200 g bw) were anaesthetized with chloral hydrate (400 mg/kg ip) and placed in a stereotaxic apparatus. The skin was opened to reveal the skull and a cold light (Bioblock 150 W) was placed in contact with the right side of the skull forward of lambda. Bengal rose dye (10 mg/kg iv in saline) was administered intravenously and illumination of the skull started immediately and continued for 5 minutes. The skin was then sutured closed over the skull and the animal returned to its cage. Twenty-four hours after the photothrombotic lesion animals received HP184 made up in 1% tween in water by intravenous route at 0, 10 or 20 mg/kg body weight in a volume of 5 ml/kg. One hour later, animals were killed by decapitation and their brains removed (see appendix for protocol). Core samples were taken at the site of the lesion, and contralateral to the lesion, using a 6 mm diameter cork borer. Water content was determined by wet weight of tissue/dry weight of tissue and edema expressed as % excess water on lesioned sample compared with sample from contralateral hemisphere for each rat.
# [3] = test system: long-standing (25 days) spinal cord injury of minor intensity; experiment: Chronic crush experiment, 25-day old mild compression injury (1.6 mm), OFT score; type: in vivo, rat; details: for OFT score 3 hours after last dose (Day 28, mild) / OFT score 3 hours after last dose: three consecutive daily doses; for OFT score prior to dose (Day 25, mild): group 3 mg/kg po; for OFT score prior to dose (Day 25, mild) / OFT score prior to dose: baseline before dosing
# Description: Normal spinal cord diameter is approximately 2.5 mm. This compression represents a moderate injury characterized by initial open field walking scores of 1.5–2.5 in the Open Field Walking Scale. […] The spinal cords of female rats were exposed to laminectomy or crush to a diameter of 1.6 mm. This represented a minor injury, and was designed to result in OFT scores of 4.0 after 25 days of no treatment. […] In this experiment, OFT scores were slightly higher (4.3–4.5), leaving only a small window for improvement. […] Consistent improvement was also observed after once a day ip 0.6 mg/kg 4-AP as well. The statistical differences were based upon the changes for each individual rat (each rat was its own control) using Mann-Whitney U-test. All the behavioral tests on day1, day2 and day3 were performed at 3 hours after gavage. There was no drug given on day3 (first day started to give drug was day 0).
# [4] = test system: moderate chronic (35 days post-injury) spinal cord crush; experiment: Long standing moderate spinal cord crush (35 days), OFT score; type: in vivo, rat
# Description: A tabular representation of the results from both chronic spinal cord injury studies (drugs first administered 25 days after a mild spinal cord crush and 35 days after a moderate spinal cord crush) are shown in Table 5.
# One hundred fifty adult female Wistar rats, 250–300 g weight, obtained from Charles River were housed in the McMaster University Health Sciences Centre (HSC) Central Animal Facilities (CAF) for at least one week. During that time they were exposed to the performance tests described below, to ensure they were familiar with them. Rats were handled daily for 2 weeks prior to surgery.
# Rats were anesthetized using isoflurane (3–5%): O2 (1 L/min) in an appropriately equipped surgical suite in the CAF. Temgesic (0.03 mg/kg body weight, subcutaneously (SQ)) was administered prior to surgery for pain relief. Spinal cords were crushed (compressed) with a 3.5 mm wide modified coverslip forceps (Blight 1991, procedure revised by Rathbone laboratory). The forceps were closed to 1.4 mm for 15 sec, which produced injury level equivalent to the mid-level (moderate) outcome on the Gruner scale (1996). The compression injury was otherwise performed according to the procedure described by Blight (1991).
# Changes in locomotor behaviour and segmental reflexes were assessed up to 5 weeks post injury. Animals were tested in an open field walking task, hind limb placement and foot orientation. The animals were evaluated on days 2, 7, 14, 21, 28 and 35 after surgery. By 35 days after surgery, almost no further spontaneous recovery occurs. Therefore treatment began on day 35.
# HP184 was dissolved in sterilized (autoclaved) deionized reverse-osmosis water acidified with glacial acetic acid (0.1 ml acid per 10 ml of water). 4-AP (Sigma, molecular weight 94.12; Jankowska E. et al., 1982; Gruner et al., 1999) was dissolved in physiological saline (0.6 mg/kg b.w.) and was administered by i.p. injection. One group of rats (vehicle control-1) received by oral gavage vehicle. Behaviourial testing was done immediately prior to receiving the gavage and at 3 hours thereafter. Then, the rats were scarified on day 35. All the other rats received either HP184 by oral gavage (0.3, 1, or 3 mg/kg bw depending on the group) or 4-AP (0.6 mg/kg, i.p.) or vehicle (vehicle control-2) once a day on the 35 to 42 days after surgery. On these days behaviourial tests were done immediately prior to receiving the gavage at 3 and 24 hours thereafter. Then, the rats were perfused on day 43 after the last behaviourial testing.
# Statistical analyses were performed on a Macintosh computer using GB-Stat ppc 6.5.2. The behavioral scores were analyzed by the Kruskal-Wallis nonparametric analysis of variance (ANOVA). Post hoc comparisons were made using Mann-Whitney U tests.
smiles,measurement,setting,value
"CCCN(c1ccncc1F)n1cc(C)c2ccccc21 [HP184, N-(3-fluoro-4-pyridinyl)-N-propyl-3-methyl-1H-indole-1-amine]","extent of demyelination, comparison of the groups",[1]; 3 mg/kg po,showed the least demyelination
same,myelin at the site of injury,[1]; 3 mg/kg/day by oral gavage from 35 to 41 days after moderate crush injury,more myelin at the site of injury
same,"myelinated / demyelinated area at the crush center, FIG. 7","[1]; HP184 0.3, 1 or 3 mg/kg po or 4-AP 0.6 mg/kg ip, days 35–42 after moderate crush",significantly greater myelinated area than that of saline controls
same,edema (% excess water) at 25 h post lesion,[2]; 10 mg/kg iv at 24 h post lesion,3.61 ± 0.23 ns % excess water
same,edema (% excess water) at 25 h post lesion,[2]; 20 mg/kg iv at 24 h post lesion,3.20 ± 0.27 % excess water
same,reduction of the edema in the right cerebral cortex,"[2]; 20 mg/kg iv, one hour after administration, 25 hours after lesion",22%
same,OFT improvement compared to vehicle control (Mann-Whitney U-test),"[3]; 3 mg/kg po once a day, p=0.0027",significant improvement at 30 min to 6 h to day 1
same,"OFT score 3 hours after last dose (Day 28, mild)",[3]; 3 mg/kg po once a day,4.47 ± .035
same,"OFT score 3 hours after last dose (Day 28, mild)","[3]; 3 mg/kg po once a day, listed as HP",4.47 ± 0.04
same,OFT improvement compared to vehicle control (Mann-Whitney U-test),"[3]; 10 mg/kg po once a day, p=0.014",significant improvement at 30 min and 3 h to 12 h
same,OFT score 3 hours after last dose,[3]; 10 mg/kg po once a day,4.44 ± 0.03
same,OFT improvement compared to vehicle control (Mann-Whitney U-test),"[3]; 20 mg/kg po once a day, p=0.002",significant improvement at 3 h to day 3
same,OFT score 3 hours after last dose,[3]; 20 mg/kg po once a day,4.60 ± 0.02
same,"% possible improvement (highest score = 5), mild",[3]; 3 mpk po,22.0%*
same,"Delta of OFT score, Day 25 to Day 28 (mild)",[3]; 3 mpk po,.15
same,"OFT score prior to dose (Day 25, mild)",[3],4.32 ± .016
same,"OFT score prior to dose (Day 25, mild)",[3]; listed as HP,4.32 ± 0.05
same,OFT score prior to dose,[3]; group 10 mg/kg po,4.36 ± 0.01
same,OFT score prior to dose,[3]; group 20 mg/kg po,4.54 ± 0.02
same,"recovery of locomotor function, comparison of the doses","[4]; 3 mg/kg po vs 0.3 and 1 mg/kg, days 35–42",produced the best recovery of locomotor function
same,"% possible improvement, moderate",[4]; 3 mpk po,24.8%*
same,"Delta of OFT score, Day 35 to Day 39 (moderate)",[4]; 3 mpk po,.274
same,OFT score Day 39 (moderate) 3 hrs after last dose,[4]; 3 mpk po daily,4.17 ± .058
same,"open field locomotor ability (mean OFT scores) vs vehicle, FIGS. 6a and 6b","[4]; HP184 0.3, 1 or 3 mg/kg po or 4-AP 0.6 mg/kg ip once a day, days 35–42, treatment effect p<0.01",significantly different from that of control animals receiving vehicle
same,OFT score Day 35 (moderate) prior,"[4]; group 3 mpk po, baseline before dosing",3.89 ± .054
